Assay results reported in patent US7138361B2, “Herbicidal heterocycles” (E. I. du Pont de Nemours and Company, priority 2000, dated 2006).

How the values were obtained:
Type in all cases: in vivo
Sunflower = experiment: Test C preemergence; settings: Rate 250 g/ha, scale 0 to 100, 0 no effect, 100 complete control
[1] = tested on: Surinam grass (Brachiaria decumbens); experiment: Test C preemergence; settings: for Plant response rating (0 to 100), Surinam grass: Rate 500 g/ha, visual evaluation after 12 to 14 days
Method in brief: (§1)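 Compounds in non-phytotoxic solvent with surfactant applied preemergence to planted seeds and postemergence to plants at 1- to 4-leaf stage (2–18 cm). Kept in greenhouse 12–14 days, then visually rated against controls on a 0 (no effect) to 100 (complete control) scale.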

[2] = tested on: bermudagrass (Cynodon dactylon); experiment: Test C preemergence; settings: for Plant response rating (0 to 100 where 0 is no effect and 100 is complete control), Bermudagrass: Rate 500 g/ha, visual evaluation after 12 to 14 days
Method in brief: as §1

soybean (Glycine max) = experiment: Test C preemergence
Method in brief: as §1

[3] = tested on: cocklebur (Xanthium strumarium); experiment: Test C preemergence; settings: for Plant response rating (0 to 100), Cocklebur: Rate 500 g/ha, visual evaluation after 12 to 14 days
Method in brief: as §1

kochia (Kochia scoparia) = experiment: Test C preemergence; settings: for Plant response rating (0 to 100), Kochia: Rate 500 g/ha, visual evaluation after 12 to 14 days
Method in brief: as §1

[4] = tested on: crabgrass (Digitaria sanguinalis); experiment: Test C preemergence; settings: for Plant response rating (0 to 100), Crabgrass: Rate 500 g/ha, visual evaluation after 12 to 14 days
Method in brief: as §1

[5] = tested on: pigweed (Amaranthus retroflexus); experiment: Test C preemergence; settings: for Plant response rating (0 to 100), Pigweed: Rate 500 g/ha, visual evaluation after 12 to 14 days
Method in brief: as §1

[6] = tested on: giant foxtail (Setaria faberii); experiment: Test C preemergence; settings: for Plant response rating (0 to 100), Foxtail, Giant: Rate 500 g/ha, visual evaluation after 12 to 14 days
Method in brief: as §1

[7] = tested on: woolly cupgrass (Eriochloa villosa); experiment: Test C preemergence; settings: for Plant response rating (0 to 100), Cupgrass, Woolly: Rate 500 g/ha, visual evaluation after 12 to 14 days
Method in brief: as §1

Nightshade = experiment: Test C preemergence; settings: Rate 500 g/ha, visual evaluation after 12 to 14 days
[8] = tested on: velvetleaf (Abutilon theophrasti); experiment: Test B preemergence
Method in brief: (§2)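 Post-treatment, species sat 13–15 days under greenhouse conditions before visual scoring against controls, 0 (no effect) through 100 (complete control). Application preemergence to sown seeds or postemergence at 1- to 4-leaf stage, using a non-phytotoxic solvent/surfactant formulation.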

[9] = tested on: Surinam grass (Brachiaria decumbens); experiment: Test B preemergence
Method in brief: as §2

[10] = tested on: lambsquarters (Chenopodium album); experiment: Test B preemergence
Method in brief: as §2

[11] = tested on: barnyardgrass (Echinochloa crus-galli); experiment: Test B preemergence
Method in brief: as §2

[12] = tested on: morning glory (Ipomoea hederacea); experiment: Test B preemergence
Method in brief: as §2

[13] = tested on: cocklebur (Xanthium strumarium); experiment: Test B preemergence
Method in brief: as §2

[14] = tested on: crabgrass (Digitaria sanguinalis); experiment: Test B preemergence
Method in brief: as §2

[15] = tested on: pigweed (Amaranthus retroflexus); experiment: Test B preemergence
Method in brief: as §2

rice (Oryza saliva) = experiment: Test B preemergence
Method in brief: as §2

corn (Zea mays) = experiment: Test B preemergence
Method in brief: as §2

[16] = tested on: giant foxtail (Setaria faberii); experiment: Test B preemergence
Method in brief: as §2

[17] = Rate 125 g/ha, scale 0 to 100, 0 no effect, 100 complete control
[18] = preemergence, Rate 62 g/ha, scale 0 to 100
[19] = preemergence, Rate 250 g/ha, scale 0 to 100, 0 no effect, 100 complete control
[20] = Preemergence, Rate 500 g/ha, scale 0 to 100, 0 no effect, 100 complete control
[21] = preemergence, Rate 125 g/ha, scale of 0 to 100 where 0 is no effect and 100 is complete control, 13 to 15 days

Structure (SMILES): CCOc1cccc(N2CCC(n3ccc(C(C)C)n3)C2=O)c1 (stereo not drawn) [Compound 128]
- Plant response rating, Sunflower (Sunflower): 100
- Plant response rating, Surinam grass [1, 17]: 100
- Plant response rating, Surinam grass [1, 18]: 90
- Plant response rating (0 to 100), Surinam grass ([1]; preemergence): 100
- Plant response rating, Surinam grass [1, 19]: 100
- Plant response rating, Bermudagrass [2, 17]: 100
- Plant response rating, Bermudagrass [2, 18]: 100
- Plant response rating (0 to 100 where 0 is no effect and 100 is complete control), Bermudagrass ([2]; preemergence): 100
- Plant response rating, Bermudagrass [2, 19]: 100
- Plant response rating, Soybean (soybean (Glycine max); [19]): 60
- Plant response rating, Cocklebur [3, 17]: 10
- Plant response rating, Cocklebur [3, 18]: 0
- Plant response rating (0 to 100), Cocklebur ([3]; preemergence): 70
- Plant response rating, Cocklebur [3, 19]: 40
- Plant response rating, Kochia (kochia (Kochia scoparia); [17]): 100
- Plant response rating, Kochia (kochia (Kochia scoparia); [18]): 100
- Plant response rating (0 to 100), Kochia (kochia (Kochia scoparia); preemergence): 100
- Plant response rating, Kochia (kochia (Kochia scoparia); [19]): 100
- Plant response rating, Crabgrass [4, 17]: 100
- Plant response rating, Crabgrass [4, 18]: 100
- Plant response rating (0 to 100), Crabgrass ([4]; preemergence): 100
- Plant response rating, Crabgrass [4, 19]: 100
- Plant response rating, Pigweed [5, 17]: 70
- Plant response rating, Pigweed [5, 18]: 70
- Plant response rating (0 to 100), Pigweed ([5]; preemergence): 100
- Plant response rating, Pigweed [5, 19]: 80
- Plant response rating, Foxtail, Giant [6, 17]: 90
- Plant response rating, Foxtail, Giant [6, 18]: 20
- Plant response rating (0 to 100), Foxtail, Giant ([6]; preemergence): 100
- Plant response rating, Foxtail, Giant [6, 19]: 90
- Plant response rating, Cupgrass, Woolly [7, 17]: 100
- Plant response rating, Cupgrass, Woolly [7, 18]: 100
- Plant response rating (0 to 100), Cupgrass, Woolly ([7]; preemergence): 100
- Plant response rating, Cupgrass, Woolly [7, 19]: 100
- Plant response rating (0 to 100), Nightshade (Nightshade): 100
- Plant response rating, Velvetleaf [8, 20]: 50
- Plant response rating, Velvetleaf [8, 21]: 0
- Plant response rating, Surinam grass [9, 20]: 100
- Plant response rating, Surinam grass [9, 21]: 100
- Plant response rating, Lambsquarters [10, 20]: 100
- Plant response rating, Lambsquarters [10, 21]: 100
- Plant response rating, Barnyardgrass [11, 20]: 100
- Plant response rating, Barnyardgrass [11, 21]: 100
- Plant response rating, Morningglory [12, 20]: 90
- Plant response rating, Morningglory [12, 21]: 70
- Plant response rating, Cocklebur [13, 20]: 60
- Plant response rating, Cocklebur [13, 21]: 0
- Plant response rating, Crabgrass [14, 20]: 100
- Plant response rating, Crabgrass [14, 21]: 100
- Plant response rating, Pigweed [15, 20]: 100
- Plant response rating, Pigweed [15, 21]: 100
- Plant response rating, Rice (rice (Oryza saliva); [20]): 100
- Plant response rating, Rice (rice (Oryza saliva); [21]): 100
- Plant response rating, Corn (corn (Zea mays); [20]): 60
- Plant response rating, Corn (corn (Zea mays); [21]): 30
- Plant response rating, Foxtail, Giant [16, 20]: 100
- Plant response rating, Foxtail, Giant [16, 21]: 100

Structure (SMILES): CCCC(C)c1ccn(C2CCN(c3cccc(OCC)c3)C2=O)n1 (stereo not drawn) [Compound 129]
- Plant response rating, Sunflower (Sunflower): 10
- Plant response rating, Surinam grass [1, 17]: 80
- Plant response rating, Surinam grass [1, 18]: 80
- Plant response rating (0 to 100), Surinam grass ([1]; preemergence): 100
- Plant response rating, Surinam grass [1, 19]: 90
- Plant response rating, Bermudagrass [2, 17]: 100
- Plant response rating, Bermudagrass [2, 18]: 100
- Plant response rating (0 to 100 where 0 is no effect and 100 is complete control), Bermudagrass ([2]; preemergence): 100
- Plant response rating, Bermudagrass [2, 19]: 100
- Plant response rating, Soybean (soybean (Glycine max); [17]): 20
- Plant response rating, Soybean (soybean (Glycine max); [18]): 10
- Plant response rating (0 to 100), Soybean (soybean (Glycine max); preemergence, Rate 500 g/ha, visual evaluation after 12 to 14 days): 20
- Plant response rating, Soybean (soybean (Glycine max); [19]): 20
- Plant response rating, Cocklebur [3, 17]: 0
- Plant response rating, Cocklebur [3, 18]: 0
- Plant response rating (0 to 100), Cocklebur ([3]; preemergence): 0
- Plant response rating, Cocklebur [3, 19]: 0
- Plant response rating, Kochia (kochia (Kochia scoparia); [17]): 100
- Plant response rating, Kochia (kochia (Kochia scoparia); [18]): 0
- Plant response rating (0 to 100), Kochia (kochia (Kochia scoparia); preemergence): 100
- Plant response rating, Kochia (kochia (Kochia scoparia); [19]): 100
- Plant response rating, Crabgrass [4, 17]: 100
- Plant response rating, Crabgrass [4, 18]: 100
- Plant response rating (0 to 100), Crabgrass ([4]; preemergence): 100
- Plant response rating, Crabgrass [4, 19]: 100
- Plant response rating, Pigweed [5, 17]: 100
- Plant response rating, Pigweed [5, 18]: 20
- Plant response rating (0 to 100), Pigweed ([5]; preemergence): 100
- Plant response rating, Pigweed [5, 19]: 60
- Plant response rating, Foxtail, Giant [6, 17]: 60
- Plant response rating, Foxtail, Giant [6, 18]: 20
- Plant response rating (0 to 100), Foxtail, Giant ([6]; preemergence): 100
- Plant response rating, Foxtail, Giant [6, 19]: 80
- Plant response rating, Cupgrass, Woolly [7, 17]: 100
- Plant response rating, Cupgrass, Woolly [7, 18]: 90
- Plant response rating (0 to 100), Cupgrass, Woolly ([7]; preemergence): 100
- Plant response rating, Cupgrass, Woolly [7, 19]: 100
- Plant response rating (0 to 100), Nightshade (Nightshade): 60
- Plant response rating, Velvetleaf [8, 20]: 0
- Plant response rating, Velvetleaf [8, 21]: 0
- Plant response rating, Surinam grass [9, 20]: 100
- Plant response rating, Surinam grass [9, 21]: 90
- Plant response rating, Lambsquarters [10, 20]: 100
- Plant response rating, Lambsquarters [10, 21]: 100
- Plant response rating, Barnyardgrass [11, 20]: 100
- Plant response rating, Barnyardgrass [11, 21]: 100
- Plant response rating, Morningglory [12, 20]: 0
- Plant response rating, Morningglory [12, 21]: 0
- Plant response rating, Cocklebur [13, 20]: 0
- Plant response rating, Cocklebur [13, 21]: 0
- Plant response rating, Crabgrass [14, 20]: 100
- Plant response rating, Crabgrass [14, 21]: 100
- Plant response rating, Pigweed [15, 20]: 100
- Plant response rating, Pigweed [15, 21]: 100
- Plant response rating, Rice (rice (Oryza saliva); [20]): 50
- Plant response rating, Rice (rice (Oryza saliva); [21]): 30
- Plant response rating, Corn (corn (Zea mays); [20]): 30
- Plant response rating, Corn (corn (Zea mays); [21]): 20
- Plant response rating, Foxtail, Giant [16, 20]: 100
- Plant response rating, Foxtail, Giant [16, 21]: 100
